Assays:
[1] = system: GLP-1R-expressing HEK293 cells + Dyngo-4A (phosphoproteome); test: Phosphoproteomics, GLP-1R-transfected cells with internalization inhibitor Dyngo-4A, 30 min; assay type: cell-based, human; conditions: 50 μM, 30 min preincubation
Procedure: P values were calculated by a two-sided unpaired t-test.
HEK293 cells (350,000 cells/mL) were transfected in suspension using 3 μg of linear PEI (MW 25,000) per 1 μg of plasmid DNA and seeded onto poly-D-lysine-coated 60 mm dishes at a density of 1,750,000 cells per dish. After a 24-h incubation, cells were washed twice with PBS and placed in starvation media (DMEM with penicillin/streptomycin). After a 48-h incubation, cells were washed twice with HBSS and maintained in the same buffer. […] Cell extracts were prepared as previously described[64]–[66]. In short, 200 μL of the lysis buffer preheated at 95 °C (4% sodium dodecyl sulfate in 50 mM Tris adjusted to pH 8.5) was added to the cells. The samples were then denatured at 95 °C for 10 min, placed on ice and then sonicated using a probe sonicator (3 sec on, 3 sec off pulse, 1 min, 30% amplitude) (Branson). Lysate protein concentration was determined using the Pierce bicinchoninic acid assay kit (Thermo Fisher Scientific) according to the manufacturer’s instructions. The lysates were reduced using 5 mM dithiothreitol for 1 h at room temperature and alkylated using 15 mM iodoacetamide for 1 h at room temperature in the dark. Proteins were precipitated and digested on beads using MagReSyn Amine magnetic beads (ReSyn Biosciences) according to the manufacturer’s instructions. Protein digestion was conducted overnight at 37 °C with lysyl endopeptidase (LysC, Wako) (1:150 LysC/protein, w/w) and trypsin (1:300 trypsin/protein, w/w). 20% TFA, 2 M glycolic acid in 80% ACN were added to the samples at a 1:1 ratio for phosphopeptide enrichment using MagReSyn TiO2 magnetic beads (ReSyn Biosciences) according to the manufacturer’s instructions. The enriched phosphopeptides were dried overnight in a SpeedVac, resuspended into 5% formic acid (FA), desalted using StageTip (Thermo Fisher Scientific) according to the manufacturer’s instructions and dried in a SpeedVac. The experiment was performed in biological triplicates.
All parameters and settings regarding the acquisition of the proteomics data can be found in Supplementary Data 11, 12. For data acquisition, the instrument was set to peptide mode, with a trapping pressure set as low (2mTorr). An EASY-Spray Source (Thermo Fisher Scientific) was used and the column temperature was maintained with the integrated, temperature-controlled heater at 55 °C throughout the experiment. For the data presented in Fig. 5d, the column was heated at 50 °C following the manufacturer’s instructions (IonOpticks).
Acquired raw files were converted to mzML format by MSConvert (version 3.0.21258)[67] applying peak picking of the mass spectra with the vendor-provided algorithm (Thermo Fisher Scientific). The mzML files were analyzed using the FragPipe GUI v18 for both library and DIA search. […] Trypsin with up to 2 missed cleavages was set as digestion enzyme, oxidation of methionine, acetylation of the N-terminus and phosphorylation on serine, threonine and tyrosine (maximal occurrence was set to three) were set as variable modifications. Carbamidomethylation of cysteine residues was set as a fixed modification. Peptide length was restricted to 7 to 50 amino acids, and 500 to 5000 Da. The precursor tolerance was set to ±20 ppm, fragment mass tolerance to 20 ppm and MSBooster was enabled. The resulting peptide-spectrum matches were adjusted to a 1% false discovery rate with Percolator[69] as part of the Philosopher toolkit (v4.4)[70] and converted to a spectra library. DIA files were analyzed by DIA-NN 1.8.1[71], [72] using the previously generated library and monitor-command mode. Peptide quantification was performed based on the fragment elution profiles from the MS2 level (area under the curve).
All further data processing was performed in R (version 4.2.1). Only phosphopeptides with a localization score of at least 0.75 were considered for further analysis. […]

[2] = ref [56], [57], cited from earlier work
[3] = Adverse drug event analysis (FAERS, log likelihood ratio); conditions: for logLR: Fig. 6d; for proportion, Pancreatic disease: ADR_TERM Pancreatic disease
[4] = SOC Endocrine disorders, FAERS via Open Targets
[5] = SOC Gastrointestinal disorders, FAERS via Open Targets
[6] = SOC Investigations, FAERS via Open Targets
[7] = SOC Metabolism and nutrition disorders, FAERS via Open Targets

O=C(N/N=C/c1cc(O)c(O)cc1O)c1cc2ccccc2cc1O [Dyngo-4A]
effect on magnitude of agonist-induced phosphorylation events [1]: affected

CC[C@H](C)[C@H](NC(=O)[C@H](Cc1ccccc1)NC(=O)[C@H](CCC(=O)O)NC(=O)[C@H](CCCCNC(=O)COCCOCCNC(=O)COCCOCCNC(=O)CC[C@H](NC(=O)CCCCCCCCCCCCCCCCC(=O)O)C(=O)O)NC(=O)[C@H](C)NC(=O)[C@H](C)NC(=O)[C@H](CCC(N)=O)NC(=O)CNC(=O)[C@H](CCC(=O)O)NC(=O)[C@H](CC(C)C)NC(=O)[C@H](Cc1ccc(O)cc1)NC(=O)[C@H](CO)NC(=O)[C@H](CO)NC(=O)[C@@H](NC(=O)[C@H](CC(=O)O)NC(=O)[C@H](CO)NC(=O)[C@@H](NC(=O)[C@H](Cc1ccccc1)NC(=O)[C@@H](NC(=O)CNC(=O)[C@H](CCC(=O)O)NC(=O)C(C)(C)NC(=O)[C@@H](N)Cc1cnc[nH]1)[C@@H](C)O)[C@@H](C)O)C(C)C)C(=O)N[C@@H](C)C(=O)N[C@@H](Cc1c[nH]c2ccccc12)C(=O)N[C@@H](CC(C)C)C(=O)N[C@H](C(=O)N[C@@H](CCCNC(=N)N)C(=O)NCC(=O)N[C@@H](CCCNC(=N)N)C(=O)NCC(=O)O)C(C)C [Semaglutide]
pancreatitis reports, in words ([2]; FAERS): lower incidence of pancreatitis | logLR, diabetic ketoacidosis [2, 4]: 101.6 | logLR, diabetic retinopathy [2, 4]: 83.01 | logLR, abdominal pain [2, 5]: 80.54 | logLR, diarrhoea [2, 5]: 91.4 | logLR, eructation [2, 5]: 76.22 | logLR, gastrointestinal disorder [2, 5]: 66.93 | logLR, nausea [2, 5]: 351 | logLR, pancreatic carcinoma [2, 5]: 37.15 | logLR, pancreatitis [2, 5]: 599.6 | logLR, pancreatitis acute [2, 5]: 54.4 | logLR, vomiting [2, 5]: 332.8 | logLR, decreased appetite ([2]; SOC General disorders and administration site conditions, FAERS via Open Targets): 42.19 | logLR, blood glucose increased [2, 6]: 43.39 | logLR, glycosylated haemoglobin increased [2, 6]: 60.95 | logLR, heart sounds [2, 6]: 49.27 | logLR, lipase increased [2, 6]: 49.97 | logLR, weight decreased [2, 6]: 122.9 | logLR, dehydration [2, 7]: 53.42 | logLR, euglycaemic diabetic ketoacidosis [2, 7]: 71.84 | logLR, retinopathy [2, 7]: 95.38 | logLR, acute kidney injury ([2]; SOC Renal and urinary disorders, FAERS via Open Targets): 39.07 | logLR, prolonged expiration ([2]; SOC Respiratory disorders, FAERS via Open Targets): 36.95 | logLR ([3]; Endocrine disorders: diabetic ketoacidosis): 101.6 | logLR ([3]; Endocrine disorders: diabetic retinopathy): 83.01 | logLR ([3]; Gastrointestinal disorders: abdominal pain): 80.54 | logLR ([3]; Gastrointestinal disorders: diarrhoea): 91.4 | logLR ([3]; Gastrointestinal disorders: eructation): 76.22 | logLR ([3]; Gastrointestinal disorders: gastrointestinal disorder): 66.93 | logLR ([3]; Gastrointestinal disorders: nausea): 351 | logLR ([3]; Gastrointestinal disorders: pancreatic carcinoma): 37.15 | logLR ([3]; Gastrointestinal disorders: pancreatitis): 599.6 | logLR ([3]; Gastrointestinal disorders: pancreatitis acute): 54.4 | logLR ([3]; Gastrointestinal disorders: vomiting): 332.8 | logLR ([3]; General disorders and administration site conditions: decreased appetite): 42.19 | logLR ([3]; Investigations: blood glucose increased): 43.39 | logLR ([3]; Investigations: glycosylated haemoglobin increased): 60.95 | logLR ([3]; Investigations: heart sounds): 49.27 | logLR ([3]; Investigations: lipase increased): 49.97 | logLR ([3]; Investigations: weight decreased): 122.9 | logLR ([3]; Metabolism and nutrition disorders: dehydration): 53.42 | logLR ([3]; Metabolism and nutrition disorders: euglycaemic diabetic ketoacidosis): 71.84 | logLR ([3]; Metabolism and nutrition disorders: retinopathy): 95.38 | logLR ([3]; Renal and urinary disorders: acute kidney injury): 39.07 | logLR ([3]; Respiratory disorders: prolonged expiration): 36.95 | proportion, Abdominal pain ([3]; Supplementary Fig. 21, ADR_TERM Abdominal pain): 0.04766 | proportion, Diarrhoea ([3]; Supplementary Fig. 21, ADR_TERM Diarrhoea): 0.05408 | proportion, Eructation ([3]; Supplementary Fig. 21, ADR_TERM Eructation): 0.0451 | proportion, Gastrointestinal disorder ([3]; Supplementary Fig. 21, ADR_TERM Gastrointestinal disorder): 0.03961 | proportion, Nausea ([3]; Supplementary Fig. 21, ADR_TERM Nausea): 0.2077 | proportion, Pancreatic disease ([3]; Supplementary Fig. 21, first group): 0.02198 | proportion, Pancreatic disease ([3]; Supplementary Fig. 21, fourth group (r25-r28)): 0.03219 | proportion, Pancreatic disease ([3]; Supplementary Fig. 21, third group (r21-r24)): 0.3548 | proportion, Vomiting ([3]; Supplementary Fig. 21, ADR_TERM Vomiting): 0.1969
